Assay results: US20250066346A1, “SOLID FORMS OF A BENZTHIAZOLE-PIPERAZINYL-OXAZOLE COMPOUND AND METHODS OF USE THEREOF” (Hepagene Therapeutics (HK) Limited, priority 2022, published 2025)
≈ marks a conversion by molar mass, not a printed value.

Key:
Assay type in all cases: physicochemical
[1] = Approximate solubility of Form A in solvents at room temperature (stepwise solvent addition, visual); conditions: organic solvent or mixture, thermodynamic from solid
Experimental: Approximately 2 mg of Form A of Compound I was added into a 3-mL glass vial. At room temperature, the solvents in Table 8 were then added stepwise into the vials until the solids were dissolved visually or a total volume of 2 mL was reached.

[2] = Kinetic solubility in water and bio-relevant media (SGF, FaSSIF, FeSSIF) at 37° C.; design: key to FC: form change: Yes: form changed; No: form not changed; conditions: for pH: filtered supernatant
Experimental: Agilent 1260 HPLC was utilized and detailed chromatographic conditions are provided in Tables 3 and 4 for purity and solubility test, respectively.
About 20 mg of free base (form A) HCl salt (form B), and HBr salt (form D) were added to a 5-mL glass vials followed by the addition of 4 mL of the corresponding medium/solvent into each glass vial to form a suspension. The vials were capped and rolled at 37° C. (25 rpm). Samples were removed (1 mL) at 1 h, 4 h, and 24 h and centrifuged (14000 rpm, 2 min, room temperature). The supernatant was filtered through 0.22 μm syringe filter (first few drops of filtrate were discarded) for HPLC solubility and pH tests (Table 15). The residual solids were analyzed by XRPD.

[3] = Solid state stability (XRPD for physical stability, HPLC purity for chemical stability); conditions: for Purity/initial purity: HPLC; for Form change: XRPD
Source text: All the samples were characterized by XRPD for physical stability and HPLC purity for chemical stability evaluation (Table 16).

[4] = Hygroscopicity by dynamic vapor sorption (DVS) at 25° C.
Experimental: DVS was measured via a SMS (Surface Measurement Systems) DVS Intrinsic. The relative humidity at 25° C. was calibrated against deliquescence point of LiCl, Mg(NO3)2 and KCl.

In the case of `COc1cc(C(=O)O)cc2sc(N3CCN(Cc4c(-c5c(Cl)cccc5Cl)noc4C4CC4)C[C@H]3C)nc12` [Form A, (R)-2-(4-((5-cyclopropyl-3-(2,6-dichlorophenyl)isoxazol-4-yl)methyl)-2-methylpiperazin-1-yl)-4-methoxybenzo[d]thiazole-6-carboxylic acid], the solubility ([1]; 2-MeTHF) is reported as > 40000 µg/mL, the solubility ([1]; ACN) is reported as 4800 to 9500 µg/mL (≈ 8.37 to 16.6 mM) and the solubility ([1]; Acetone) is reported as > 42000 µg/mL. For the same compound, the solubility ([1]; CPME) was 11500 to 23000 µg/mL (≈ 20.1 to 40.1 mM), the solubility ([1]; CPME/n-heptane (2:1)) was 2300 to 4600 µg/mL (≈ 4.01 to 8.02 mM) and the solubility ([1]; EtOAc) was 10000 to 20000 µg/mL (≈ 17.4 to 34.9 mM). It also gave a solubility ([1]; IPAc) of 3800 to 6300 µg/mL (≈ 6.63 to 11 mM), a solubility ([1]; MIBK) of 10000 to 20000 µg/mL (≈ 17.4 to 34.9 mM) and a solubility ([1]; MIBK/n-heptane (2:1)) of 4200 to 7000 µg/mL (≈ 7.32 to 12.2 mM). For the same compound, the solubility ([1]; MeOH) was 10500 to 21000 µg/mL (≈ 18.3 to 36.6 mM), the solubility ([1]; MeOH/H2O (9:1)) was 5300 to 10500 µg/mL (≈ 9.24 to 18.3 mM) and the solubility ([1]; THF) was > 40000 µg/mL. For the same compound, the solubility ([1]; THF/n-heptane (2:1)) was > 38000 µg/mL, the “FC: form change” value ([2]; FaSSIF, 1 hr) was “No” and the “S: solubility” value ([2]; FaSSIF, 1 hr) was 16 µg/mL. The pH ([2]; FaSSIF, 1 hr) was 6.4, the “FC: form change” value ([2]; FaSSIF, 4 hrs) was “No” and the “S: solubility” value ([2]; FaSSIF, 4 hrs) was 17 µg/mL. The pH ([2]; FaSSIF, 4 hrs) was 6.5, the “FC: form change” value ([2]; FaSSIF, 24 hrs) was “No” and the “S: solubility” value ([2]; FaSSIF, 24 hrs) was 22 µg/mL. The pH ([2]; FaSSIF, 24 hrs) was 6.4, the “FC: form change” value ([2]; FeSSIF, 1 hr) was “No” and the “S: solubility” value ([2]; FeSSIF, 1 hr) was 51 µg/mL. The pH ([2]; FeSSIF, 1 hr) was 5.0, the “FC: form change” value ([2]; FeSSIF, 4 hrs) was “No” and the “S: solubility” value ([2]; FeSSIF, 4 hrs) was 56 µg/mL. The pH ([2]; FeSSIF, 4 hrs) was 5.1, the “FC: form change” value ([2]; FeSSIF, 24 hrs) was “No” and the “S: solubility” value ([2]; FeSSIF, 24 hrs) was 56 µg/mL. The pH ([2]; FeSSIF, 24 hrs) was 5.1, the “FC: form change” value ([2]; H2O, 1 hr) was “No” and the “S: solubility” value ([2]; H2O, 1 hr) was 3 µg/mL. For the same compound, the pH ([2]; H2O, 1 hr) was 6.2, the “FC: form change” value ([2]; H2O, 4 hrs) was “No” and the “S: solubility” value ([2]; H2O, 4 hrs) was 2.3 µg/mL. For the same compound, the pH ([2]; H2O, 4 hrs) was 6.3, the “FC: form change” value ([2]; H2O, 24 hrs) was “No” and the “S: solubility” value ([2]; H2O, 24 hrs) was 4.6 µg/mL. For the same compound, the pH ([2]; H2O, 24 hrs) was 6.4, the “FC: form change” value ([2]; SGF, 1 hr) was “No” and the “S: solubility” value ([2]; SGF, 1 hr) was 20 µg/mL. The pH ([2]; SGF, 1 hr) was 2.1, the “FC: form change” value ([2]; SGF, 4 hrs) was “No” and the “S: solubility” value ([2]; SGF, 4 hrs) was 18 µg/mL. The pH ([2]; SGF, 4 hrs) was 1.8, the “FC: form change” value ([2]; SGF, 24 hrs) was “No” and the “S: solubility” value ([2]; SGF, 24 hrs) was 17 µg/mL. The pH ([2]; SGF, 24 hrs) was 2.0, the solubility ([2]; water, 37 °C, thermodynamic from solid, text summary of Table 15) was < 7 µg/mL and the Purity/initial purity ([3]; 25° C./60% RH/1 week) was 100.0%. For the same compound, the Form change ([3]; 25° C./60% RH/1 week) was “No”, the Purity/initial purity ([3]; 40° C./75% RH/1 week) was 99.9% and the Form change ([3]; 40° C./75% RH/1 week) was “No”. For the same compound, the “solid state stability (overall, in words)” value ([3]; 80° C./1 day, 25° C./60% RH/1 week, 40° C./75% RH/1 week) was “good solid state stability”, the Purity/initial purity ([3]; 80° C./1 day) was 99.8% and the Form change ([3]; 80° C./1 day) was “No”. For the same compound, the “hygroscopicity (in words)” value ([4]; DVS) was “non-hygroscopic” and the water uptake ([4]; at 80% RH) was 0.15%.
